Data from US7151105B2, “Inhibitors of Hepatitis C virus RNA-dependent RNA polymerase, and compositions and treatments using the same” (Agouron Pharmaceuticals, Inc., priority 2004, dated 2006).

These compounds were tested against T1, Recombinant HCV polymerase (Hepatitis C virus genotype 1b, UniProt P26663) (assay: biochemical). Settings: inhibition of polymerase-directed transcription; 30 min at 30° C; 30 nM enzyme; cpm data in triplicate.
T1 construct: Recombinant HCV polymerase was tested for its ability to perform primer/template-directed transcription
Method: The compounds described herein were tested for activity with HCV polymerase. Recombinant HCV polymerase was tested for its ability to perform primer/template-directed transcription in assays that contained 30 mM tris-HCl pH 7.2, 10 mM MgCl2, 20 mM NaCl, 1 mM Dithiothreitol (DTT), 0.05% Tween-20, 1% glycerol, 5 pmoles biotin-dG12 (primer), 0.5 pmoles poly(rC)300 (template), 1 μM GTP, 0.1–0.3 uCi α-^32P-GTP, and 2.5 pmoles (0.15 μg) HCV polymerase protein in a final volume of 75 μL. Reactions were initiated by addition of enzyme and incubated 30 minutes at 30° C. Reactions were stopped by addition of 33 mM EDTA, and polynucleotide products were collected by filtration through Diethylaminoethyl (DE) Filtermat papers (Wallac). Unincorporated triphosphate was removed by washing the filters with 5% dibasic sodium phosphate. The filters were counted in a Packard Tri-Lux Microbeta scintillation counter (Packard Bioscience, Meriden, Conn.). Compounds to be tested were added at various concentrations, e.g., 1 μm to 50 μm, from stocks in 10% DMSO-water (final DMSO is 1% in reaction).
IC50 values were estimated from the primary cpm data (collected in triplicate) using the formula: cpm (I)=cpm (no inhibitor)(1−([I]/([I]+IC50))). […] A percent inhibition value is expressed for a compound where it was impractical to calculate an IC50 value with available data.

T1 sequence (P26663 2420-3010): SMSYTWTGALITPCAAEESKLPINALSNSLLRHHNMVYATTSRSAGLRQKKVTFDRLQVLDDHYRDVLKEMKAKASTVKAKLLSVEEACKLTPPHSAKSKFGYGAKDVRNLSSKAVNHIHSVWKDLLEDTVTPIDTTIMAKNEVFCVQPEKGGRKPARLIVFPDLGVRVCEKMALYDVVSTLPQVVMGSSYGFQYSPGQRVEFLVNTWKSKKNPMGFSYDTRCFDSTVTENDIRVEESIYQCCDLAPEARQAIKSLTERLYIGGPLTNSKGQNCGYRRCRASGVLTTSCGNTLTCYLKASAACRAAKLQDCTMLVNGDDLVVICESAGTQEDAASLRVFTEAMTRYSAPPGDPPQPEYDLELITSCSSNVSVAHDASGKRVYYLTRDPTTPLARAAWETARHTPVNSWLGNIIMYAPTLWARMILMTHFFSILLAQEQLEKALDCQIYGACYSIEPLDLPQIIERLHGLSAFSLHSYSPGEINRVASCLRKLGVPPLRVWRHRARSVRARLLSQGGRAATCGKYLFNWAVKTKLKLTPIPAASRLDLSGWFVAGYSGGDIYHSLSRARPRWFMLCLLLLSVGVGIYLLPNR

IC50	Compound
1 nM	CCOc1cc(O)c(CC)cc1CCC1(C2CCCC2)CC(O)=C(Cc2nc3ncc(C)cn3n2)C(=O)O1 (single isomer, unassigned) [A(58), 6-Cyclopentyl-6-[2-(2-ethoxy-5-ethyl-4-hydroxyphenyl)ethyl]-4-hydroxy-3-[(6-methyl[1,2,4]triazolo[1,5-a]pyrimidin-2-yl)methyl]-5,6-dihydro-2H-pyran-2-one]
3 nM	Cc1cc(C)n2nc(CC3=C(O)CC(CCc4ccc(O)c(CC(F)(F)F)c4)(C4CCCC4)OC3=O)nc2n1 (single isomer, unassigned) [A(74), 6-Cyclopentyl-3-[(5,7-dimethyl[1,2,4]triazolo[1,5-a]pyrimidin-2-yl)methyl]-4-hydroxy-6-{2-[4-hydroxy-3-(2,2,2-trifluoroethyl)phenyl]ethyl}-5,6-dihydro-2H-pyran-2-one]
5 nM	Cc1cc(C)n2nc(CC3=C(O)CC(CCc4ccc(O)c(CC(F)(F)F)c4)(C4CCCC4)OC3=O)nc2n1 (single isomer, unassigned) [A(75), 6-cyclopentyl-3-[(5,7-dimethyl[1,2,4]triazolo[1,5-a]pyrimidin-2-yl)methyl]-4-hydroxy-6-{2-[4-hydroxy-3-(2,2,2-trifluoroethyl)phenyl]ethyl}-5,6-dihydro-2H-pyran-2-one]
11 nM	CCC(C#N)(CC)c1ccc(CCC2(C3CCCC3)CC(O)=C(Cc3nc4nc(C)cc(C)n4n3)C(=O)O2)cc1C(F)(F)F (single isomer, unassigned) [A(154), 2-[4-(2-{2-Cyclopentyl-5-[(5,7-dimethyl[1,2,4]triazolo[1,5-a]pyrimidin-2-yl)methyl]-4-hydroxy-6-oxo-3,6-dihydro-2H-pyran-2-yl}ethyl)-2-(trifluoromethyl)phenyl]-2-ethylbutanenitrile]
54 nM	CCC(C#N)(CC)c1ccc(CCC2(C3CCCC3)CC(O)=C(Cc3nc4nc(C)cc(C)n4n3)C(=O)O2)cc1C(F)(F)F (single isomer, unassigned) [A(155), 2-[4-(2-{2-Cyclopentyl-5-[(5,7-dimethyl[1,2,4]triazolo[1,5-a]pyrimidin-2-yl)methyl]-4-hydroxy-6-oxo-3,6-dihydro-2H-pyran-2-yl}ethyl)-2-(trifluoromethyl)phenyl]-2-ethylbutanenitrile]
5 nM	CCc1cc(CCC2(C3CCCC3)CC(O)=C(Cc3nc4nc(C)cc(C)n4n3)C(=O)O2)ccc1CN1CCOCC1 (single isomer, unassigned) [A(156), 6-Cyclopentyl-3-[(5,7-dimethyl[1,2,4]triazolo[1,5-a]pyrimidin-2-yl)methyl]-6-{2-[3-ethyl-4-(morpholin-4-ylmethyl)phenyl]ethyl}-4-hydroxy-5,6-dihydro-2H-pyran-2-one]
10 nM	CCc1cc(CCC2(C3CCCC3)CC(O)=C(Cc3nc4nc(C)cc(C)n4n3)C(=O)O2)ccc1CN1CCOCC1 (single isomer, unassigned) [A(157), 6-Cyclopentyl-3-[(5,7-dimethyl[1,2,4]triazolo[1,5-a]pyrimidin-2-yl)methyl]-{2-[3-ethyl-4-(morpholin-4-ylmethyl)phenyl]ethyl}-4-hydroxy-5,6-dihydro-2H-pyran-2-one]
3 nM	Cc1cc(C)n2nc(CC3=C(O)CC(CCc4cc(CC(F)(F)F)nc(CC(F)(F)F)c4)(C4CCCC4)OC3=O)nc2n1 (single isomer, unassigned; enantiomer 1) [A(10), Enantiomer 1 of 6-{2-[2,6-Bis(2,2,2-trifluoroethyl)pyridin-4-yl]ethyl}-6-cyclopentyl-3-[(5,7-dimethyl[1,2,4]triazolo[1,5-a]pyrimidin-2-yl)methyl]-4-hydroxy-5,6-dihydro-2H-pyran-2-one]
2 nM	CCc1cc(CCC2(C3CCCC3)CC(O)=C(Cc3nc4nc(C)cc(C)n4n3)C(=O)O2)c2c(c1O)CCO2 (single isomer, unassigned; enantiomer 1) [A(12), Enantiomer 1 of 6-Cyclopentyl-3-[(5,7-dimethyl[1,2,4]triazolo[1,5-a]pyrimidin-2-yl)methyl]-6-[2-(5-ethyl-4-hydroxy-2,3-dihydro-1-benzofuran-7-yl)ethyl]-4-hydroxy-5,6-dihydro-2H-pyran-2-one]
5 nM	CCc1cc(CCC2(C3CCCC3)CC(O)=C(Cc3nc4nc(C)cc(C)n4n3)C(=O)O2)ccc1CO (single isomer, unassigned; enantiomer 1) [A(114), Enantiomer 1 of 6-cyclopentyl-3-[(5,7-dimethyl[1,2,4]triazolo[1,5-a]pyrimidin-2-yl)methyl]-6-{2-[3-ethyl-4-(hydroxymethyl)phenyl]ethyl}4-hydroxy-5,6dihydro-2H-pyran-2-one]
5 nM	CCc1cc(CCC2(C3CCCC3)CC(O)=C(Cc3nc4nc(C)cc(C)n4n3)C(=O)O2)ccc1CC#N (single isomer, unassigned; enantiomer 1) [A(116), Enantiomer 1 of [4-(2-{2-Cyclopentyl-5-[(5,7-dimethyl[1,2,4]triazolo[1,5-a]pyrimidin-2-yl)methyl]-4-hydroxy-6-oxo-3,6dihydro-2H-pyran-2-yl}ethyl)-2-ethylphenyl]acetonitrile]
4 nM	CCc1cc(CCC2(C3CCCC3)CC(O)=C(Cc3nc4nc(C)cc(C)n4n3)C(=O)O2)ccc1CNS(C)(=O)=O (single isomer, unassigned; enantiomer 1) [A(129), Enantiomer 1 of N-[4-(2-{2-cyclopentyl-5-[(5,7-dimethyl[1,2,4]triazolo[1,5-a]pyrimidin-2-yl)methyl]-4-hydroxy-6-oxo-3,6-dihydro-2H-pyran-2-yl}ethyl)-2-ethylbenzyl]methanesulfonamide]
35 nM	CCc1cc(CCC2(C3CCCC3)CC(O)=C(Cc3nc4nc(C)cc(C)n4n3)C(=O)O2)ccc1CNC(C)=O (single isomer, unassigned; enantiomer 1) [A(132), Enantiomer 1 of N-[4-(2-[2-cyclopentyl-5-[(5,7-dimethyl[1,2,4]triazolo[1,5-a]pyrimidin-2-yl)methyl]-4-hydroxy-6-oxo-3,6-dihydro-2H-pyran-2-yl}ethyl)-2-ethylbenzyl]acetamide]
10 nM	CCc1cc(CCC2(C3CCCC3)CC(O)=C(Cc3nc4nc(C)cc(C)n4n3)C(=O)O2)ccc1-c1ncco1 (single isomer, unassigned; enantiomer 1) [A(138), Enantiomer 1 of 6-Cyclopentyl-3-[(5,7-dimethyl[1,2,4]triazolo[1,5-a]pyrimidin-2-yl)methyl]-6-{2-[3-ethyl-4-(1,3-oxazol-2-yl)phenyl]ethyl}-4-hydroxy-5,6-dihydro-2H-pyran-2-one]
8 nM	Cc1cc(C)n2nc(CC3=C(O)CC(CCc4cc(CC(F)(F)F)nc(CC(F)(F)F)c4)(C4CCCC4)OC3=O)nc2n1 (single isomer, unassigned; enantiomer 2) [A(11), Enantiomer 2 of 6-{2-[2,6-Bis(2,2,2-trifluoroethyl)pyridin-4-yl]ethyl}-6-cyclopentyl-3-[(5,7-dimethyl[1,2,4]triazolo[1,5-a]pyrimidin-2-yl)methyl]-4-hydroxy-5,6-dihydro-2H-pyran-2-one]
1 nM	CCc1cc(CCC2(C3CCCC3)CC(O)=C(Cc3nc4nc(C)cc(C)n4n3)C(=O)O2)c2c(c1O)CCO2 (single isomer, unassigned; enantiomer 2) [A(13), Enantiomer 2 of 6-Cyclopentyl-3-[(5,7-dimethyl[1,2,4]triazolo[1,5-a]pyrimidin-2-yl)methyl]-6-[2-(5-ethyl-4-hydroxy-2,3-dihydro-1-benzofuran-7-yl)ethyl]-4-hydroxy-5,6dihydro-2H-pyran-2-one]
6 nM	CCc1cc(CCC2(C3CCCC3)CC(O)=C(Cc3nc4nc(C)cc(C)n4n3)C(=O)O2)ccc1CO (single isomer, unassigned; enantiomer 2) [A(115), Enantiomer 2 6-cyclopentyl-3-[(5,7-dimethyl[1,2,4]triazolo[1,5-a]pyrimidin-2-yl)methyl]-6-{2-[3-ethyl-4-(hydroxymethyl)phenyl]ethyl}-4-hydroxy-5,6-dihydro-2H-pyran-2-one]
5 nM	CCc1cc(CCC2(C3CCCC3)CC(O)=C(Cc3nc4nc(C)cc(C)n4n3)C(=O)O2)ccc1CC#N (single isomer, unassigned; enantiomer 2) [A(117), Enantiomer 2 of [4(2-{2-Cyclopentyl-5[(5,7-dimethyl[1,2,4]triazolo[1,5-a]pyrimidin-2-yl)methyl]-4-hydroxy-6-oxo-3,6dihydro-2H-pyran-2-yl}ethyl)-2-ethylphenyl]acetonitrile]
3 nM	CCc1cc(CCC2(C3CCCC3)CC(O)=C(Cc3nc4nc(C)cc(C)n4n3)C(=O)O2)ccc1CNS(C)(=O)=O (single isomer, unassigned; enantiomer 2) [A(130), Enantiomer 2 of N-[4-(2-{2-cyclopentyl-5-[(5,7-dimethyl[1,2,4]triazolo[1,5-a]pyrimidin-2-yl)methyl]-4-hydroxy-6-oxo-3,6-dihydro-2H-pyran-2-yl}ethyl)-2-ethylbenzyl]methanesulfonamide]
